According to PubChem BioAssay AID1259334 (Broad Institute, 2017):
Calls of active or inactive are those of the source. No stated cut-off is given here; in the data, active means AC50 below about 11 µM.

System: B cell line, TNFa signaling counterscreen reporter
Assay: TNFa signaling inhibitors in B cell line, dose response, counter-screen (AID 1259334);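 further: cells stimulated with TNFa after compound preincubation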

**Q.** How did the AC50 turn out when `COc1cccc(C#Cc2ccc([C@H]3[C@@H](C#N)N(C(=O)c4ccccn4)[C@@H]3CO)cc2)c1` was run?
**A.** 10.3 µM

**Q.** `C[C@@H]1O[C@@H](O[C@H]2C[C@@H](O)[C@]3(CO)[C@H]4[C@H](O)C[C@]5(C)[C@@H](C6COC(=O)C6)CC[C@]5(O)[C@@H]4CC[C@]3(O)C2)[C@H](O)[C@H](O)[C@H]1O` (some centres undefined) was tested. Which AC50 did it give?
**A.** 2.76 µM

**Q.** How did the AC50 turn out when `N#C[C@H]1[C@H](c2ccc(C#Cc3ccccc3F)cc2)[C@H](CO)N1C(=O)C1CC1` was run?
**A.** 11.3 µM

**Q.** How did the AC50 turn out when `C[n+]1c2n(c3ccccc31)N=C(c1ccc(-c3ccccc3)cc1)CS2` was run?
**A.** 1.25 µM

**Q.** With `COc1ccc(S(=O)(=O)Nc2ccc3c(c2)C(=O)N([C@H](C)CO)C[C@@H](C)[C@H](CN(C)Cc2ccc(C(F)(F)F)cc2)OCCCC[C@@H](C)O3)cc1` as the molecule, how does the AC50 read?
**A.** 8.15 µM

**Q.** With `CC(C)NC(=O)N1Cc2cc(C(=O)NC3Cc4ccccc4C3)nc(-c3cccc(-c4cccnc4)c3)c2[C@@H]1CCO` as the molecule, how does the AC50 read?
**A.** 7.2 µM

**Q.** With `COc1ccc(S(=O)(=O)Nc2ccc3c(c2)C(=O)N([C@@H](C)CO)C[C@@H](C)[C@H](CN(C)Cc2ccc(C(F)(F)F)cc2)OCCCC[C@@H](C)O3)cc1` as the molecule, how does the AC50 read?
**A.** 8.32 µM

**Q.** For `CC1OC(OC2C(O)CC(OC3C(O)CC(OC4CCC5(C)C(CCC6C5CCC5(C)C(C7=CC(=O)OC7)C(O)CC65O)C4)OC3C)OC2C)CC(O)C1O` (centres undefined), which AC50 is on record?
**A.** 0.745 µM

**Q.** How did the AC50 turn out when `CC1(C)C(=O)C=C[C@@]2(C)C1C(=O)C(=O)[C@]1(C)C2CC[C@@]2(C)[C@H](c3ccoc3)C[C@H]3O[C@]321` (some centres undefined) was run?
**A.** 1.74 µM

**Q.** How did the AC50 turn out when `COc1ccc(C#Cc2ccc([C@H]3[C@@H](CO)N4CCCCN(S(=O)(=O)c5cn(C)cn5)C[C@H]34)cc2)cc1` was run?
**A.** 8.82 µM

**Q.** Which AC50 does the source give for `CCN1/C(=C/c2sc(-c3ccccc3C)c[n+]2C)Sc2ccccc21` here?
**A.** 0.574 µM

**Q.** How did the AC50 turn out when `Cn1cnc([N+](=O)[O-])c1S(=O)(=O)Oc1cccc2ccccc12` was run?
**A.** 0.397 µM

**Q.** How did the AC50 turn out when `COc1ccc(C=Cc2ccc3ccccc3n2)c(OC)c1` was run?
**A.** 3.48 µM

**Q.** `COc1c(O)cc2oc3cc(O)c(CC=C(C)C)c(O)c3c(=O)c2c1CC=C(C)C` was tested. Which AC50 did it give?
**A.** 3.15 µM

**Q.** Which AC50 does the source give for `N#C[C@H]1N[C@H](CO)[C@H]1c1ccc(C#CC2CCCC2)cc1` here?
**A.** 8.01 µM

**Q.** With `Cc1ccc(-c2cc(C(=O)N(C)CC(=O)Nc3ccccc3Br)c3ccccc3n2)o1` as the molecule, how does the AC50 read?
**A.** 11.1 µM

**Q.** Which AC50 does the source give for `Cc1ccnc(NC(=O)c2ccc(OCC3CCCO3)cc2)c1` (centres undefined) here?
**A.** 5.1 µM

**Q.** With `N#C[C@H]1[C@H](c2ccc(-c3cccc(F)c3)cc2)[C@H](CO)N1C(=O)NC1CCCC1` as the molecule, how does the AC50 read?
**A.** > 20 µM (inactive)

**Q.** How did the AC50 turn out when `NCCOc1ccc(C23CC4CC(CC(C4)C2)C3)cc1` was run?
**A.** 4.61 µM

**Q.** How did the AC50 turn out when `O=C(Nc1ccc(C(F)(F)F)cc1)Nc1ccc2c(c1)[C@H]1C[C@@H](CC(=O)N3CCc4ccccc4C3)O[C@H](CO)[C@H]1O2` was run?
**A.** 10.7 µM

**Q.** For `CN(C)c1ccc(C=c2c3cc(O)ccc3n3c2cc(-c2ccccc2)[n+]3C)cc1`, which AC50 is on record?
**A.** 2.46 µM

**Q.** `C[C@@H]1CN([C@@H](C)CO)C(=O)c2c(c3ccccc3n2C)-c2ccccc2CO[C@H]1CN(C)C(=O)Nc1ccccc1C(F)(F)F` was tested. Which AC50 did it give?
**A.** 8.9 µM

**Q.** `N#C[C@@H]1[C@H](c2ccc(C#Cc3ccccc3F)cc2)[C@@H](CO)N1C(=O)C1CC1` was tested. Which AC50 did it give?
**A.** 3.39 µM

**Q.** `Cc1cc(C)nc(Sc2ncnc(N)c2[N+](=O)[O-])n1` was tested. Which AC50 did it give?
**A.** 2.53 µM

**Q.** For `CCCCCCCCCc1ccc(OCCOCCOCCOCCOCCOCCOCCOCCOCCO)cc1`, which AC50 is on record?
**A.** 4.58 µM

**Q.** How did the AC50 turn out when `O=C(Nc1ccc(C(F)(F)F)cc1)N1C[C@@H]2N[C@H](C1)C2c1ccc(-c2ccccc2)cc1` (some centres undefined) was run?
**A.** 3.28 µM

**Q.** For `COc1ccc(S(=O)(=O)N(C)C[C@H]2Oc3ccc(NC(=O)Nc4ccc(C(F)(F)F)cc4)cc3C(=O)N([C@H](C)CO)C[C@H]2C)cc1`, which AC50 is on record?
**A.** 8.38 µM

**Q.** For `C[C@@H]1CN([C@@H](C)CO)C(=O)c2ccccc2-c2ccccc2CO[C@H]1CN(C)Cc1ccccc1C(F)(F)F`, which AC50 is on record?
**A.** 7.43 µM

**Q.** How did the AC50 turn out when `O=C(O)c1ccc(Nc2nc3c(s2)CCCC3)cc1` was run?
**A.** 5.3 µM

**Q.** With `COc1ccc2cc(-c3cc(C(=O)O)c4ccccc4n3)ccc2c1` as the molecule, how does the AC50 read?
**A.** 6.93 µM

**Q.** For `CO[C@@H](CN(C)S(=O)(=O)c1ccc(Cl)cc1)[C@H](C)CN(Cc1ccccc1Cl)[C@@H](C)CO`, which AC50 is on record?
**A.** > 20 µM (inactive)

**Q.** `CC(C)OC(=O)c1cn(Cc2c(F)cccc2F)c2sc(-c3ccc(NC(=O)C(C)C)cc3)c(CN(C)Cc3ccccc3)c2c1=O` was tested. Which AC50 did it give?
**A.** 8.24 µM

**Q.** How did the AC50 turn out when `COc1ccc2c3c(n(C)c2c1)[C@H](CO)N(C(=O)Nc1ccc(F)cc1)CC31CCN(C(=O)c2ccc3c(c2)OCO3)CC1` was run?
**A.** > 20 µM (inactive)

**Q.** How did the AC50 turn out when `CC(C)CCCCCCCCCCCCC(=O)NCC(=O)NC1C(O)C(O)C(Nc2ncnc3nc[nH]c23)OC1C(O)CO` (centres undefined) was run?
**A.** 0.00421 µM

**Q.** For `C[n+]1c(-c2ccccc2)cc2c(=Cc3ccc([N+](=O)[O-])cc3)c3ccccc3n21`, which AC50 is on record?
**A.** 2.96 µM

**Q.** For `Cc1cc(C(=O)COC(=O)CNC(=O)c2ccccc2)c(C)n1CC1CCCO1` (centres undefined), which AC50 is on record?
**A.** 5.61 µM

**Q.** With `COC(=O)c1nn(-c2ccc(-c3ccccc3)cc2)cc1O` as the molecule, how does the AC50 read?
**A.** 8.92 µM

**Q.** Which AC50 does the source give for `CC1CC(C)(O)CC(C(O)CC2CC(=O)NC(=O)C2)C1=O` (centres undefined) here?
**A.** 0.0899 µM

**Q.** With `CCOc1ccc(OCc2cccc(C(=O)N3CCOCC3)c2)cc1` as the molecule, how does the AC50 read?
**A.** 2.84 µM

**Q.** With `CCc1csc(N2[C@H](C#N)[C@H](c3ccc(C#Cc4ccc(F)cc4)cc3)[C@H]2CO)n1` as the molecule, how does the AC50 read?
**A.** > 20 µM (inactive)

**Q.** `CCN(CC)C(=O)c1ccc(NC(=O)Nc2ccccc2F)cc1` was tested. Which AC50 did it give?
**A.** 1.86 µM

**Q.** Which AC50 does the source give for `CC(C)CC#Cc1ccc([C@@H]2[C@H]3CN(C(=O)Nc4ccccc4)CCCCN3[C@H]2CO)cc1` here?
**A.** 6.52 µM

**Q.** How did the AC50 turn out when `Cc1ccc(S(=O)(=O)C=CS(=O)(=O)c2ccc(C)cc2)cc1` was run?
**A.** 1.22 µM

**Q.** Which AC50 does the source give for `CC(C)[C@H](CO)Nc1nc(Nc2cccc(Cl)c2)c2ncn(C(C)C)c2n1` here?
**A.** 3.58 µM
